This is an account of results in article PMC3556037, “Stimulation of Inositol 1,4,5-Trisphosphate (IP3) Receptor Subtypes by Analogues of IP3” (PLoS ONE, 2013).

Where two headings read alike, the source gives them in different places.

What all share (assay): Ca2+ release from ER of permeabilized DT40 cells, luminal Mag fluo-4
The target of test [1] is T1, IP3R3 (Rattus norvegicus, UniProt Q63269).
T1 construct: gene Itpr3; full-length, homotetramer, stably expressed in DT40 cells lacking all endogenous IP3R; saponin-permeabilized cells
In kind it is cell-based. From the text:
(§1) Ca2+ release from ER of permeabilized DT40 cells, luminal Mag fluo-4 on IP3R3

In another test the target is T2, IP3R2 (Mus musculus, UniProt Q9Z329).
T2 construct: gene Itpr2; full-length, homotetramer, stably expressed in DT40 cells lacking all endogenous IP3R; saponin-permeabilized cells
T2 sequence (Q9Z329 whole entry): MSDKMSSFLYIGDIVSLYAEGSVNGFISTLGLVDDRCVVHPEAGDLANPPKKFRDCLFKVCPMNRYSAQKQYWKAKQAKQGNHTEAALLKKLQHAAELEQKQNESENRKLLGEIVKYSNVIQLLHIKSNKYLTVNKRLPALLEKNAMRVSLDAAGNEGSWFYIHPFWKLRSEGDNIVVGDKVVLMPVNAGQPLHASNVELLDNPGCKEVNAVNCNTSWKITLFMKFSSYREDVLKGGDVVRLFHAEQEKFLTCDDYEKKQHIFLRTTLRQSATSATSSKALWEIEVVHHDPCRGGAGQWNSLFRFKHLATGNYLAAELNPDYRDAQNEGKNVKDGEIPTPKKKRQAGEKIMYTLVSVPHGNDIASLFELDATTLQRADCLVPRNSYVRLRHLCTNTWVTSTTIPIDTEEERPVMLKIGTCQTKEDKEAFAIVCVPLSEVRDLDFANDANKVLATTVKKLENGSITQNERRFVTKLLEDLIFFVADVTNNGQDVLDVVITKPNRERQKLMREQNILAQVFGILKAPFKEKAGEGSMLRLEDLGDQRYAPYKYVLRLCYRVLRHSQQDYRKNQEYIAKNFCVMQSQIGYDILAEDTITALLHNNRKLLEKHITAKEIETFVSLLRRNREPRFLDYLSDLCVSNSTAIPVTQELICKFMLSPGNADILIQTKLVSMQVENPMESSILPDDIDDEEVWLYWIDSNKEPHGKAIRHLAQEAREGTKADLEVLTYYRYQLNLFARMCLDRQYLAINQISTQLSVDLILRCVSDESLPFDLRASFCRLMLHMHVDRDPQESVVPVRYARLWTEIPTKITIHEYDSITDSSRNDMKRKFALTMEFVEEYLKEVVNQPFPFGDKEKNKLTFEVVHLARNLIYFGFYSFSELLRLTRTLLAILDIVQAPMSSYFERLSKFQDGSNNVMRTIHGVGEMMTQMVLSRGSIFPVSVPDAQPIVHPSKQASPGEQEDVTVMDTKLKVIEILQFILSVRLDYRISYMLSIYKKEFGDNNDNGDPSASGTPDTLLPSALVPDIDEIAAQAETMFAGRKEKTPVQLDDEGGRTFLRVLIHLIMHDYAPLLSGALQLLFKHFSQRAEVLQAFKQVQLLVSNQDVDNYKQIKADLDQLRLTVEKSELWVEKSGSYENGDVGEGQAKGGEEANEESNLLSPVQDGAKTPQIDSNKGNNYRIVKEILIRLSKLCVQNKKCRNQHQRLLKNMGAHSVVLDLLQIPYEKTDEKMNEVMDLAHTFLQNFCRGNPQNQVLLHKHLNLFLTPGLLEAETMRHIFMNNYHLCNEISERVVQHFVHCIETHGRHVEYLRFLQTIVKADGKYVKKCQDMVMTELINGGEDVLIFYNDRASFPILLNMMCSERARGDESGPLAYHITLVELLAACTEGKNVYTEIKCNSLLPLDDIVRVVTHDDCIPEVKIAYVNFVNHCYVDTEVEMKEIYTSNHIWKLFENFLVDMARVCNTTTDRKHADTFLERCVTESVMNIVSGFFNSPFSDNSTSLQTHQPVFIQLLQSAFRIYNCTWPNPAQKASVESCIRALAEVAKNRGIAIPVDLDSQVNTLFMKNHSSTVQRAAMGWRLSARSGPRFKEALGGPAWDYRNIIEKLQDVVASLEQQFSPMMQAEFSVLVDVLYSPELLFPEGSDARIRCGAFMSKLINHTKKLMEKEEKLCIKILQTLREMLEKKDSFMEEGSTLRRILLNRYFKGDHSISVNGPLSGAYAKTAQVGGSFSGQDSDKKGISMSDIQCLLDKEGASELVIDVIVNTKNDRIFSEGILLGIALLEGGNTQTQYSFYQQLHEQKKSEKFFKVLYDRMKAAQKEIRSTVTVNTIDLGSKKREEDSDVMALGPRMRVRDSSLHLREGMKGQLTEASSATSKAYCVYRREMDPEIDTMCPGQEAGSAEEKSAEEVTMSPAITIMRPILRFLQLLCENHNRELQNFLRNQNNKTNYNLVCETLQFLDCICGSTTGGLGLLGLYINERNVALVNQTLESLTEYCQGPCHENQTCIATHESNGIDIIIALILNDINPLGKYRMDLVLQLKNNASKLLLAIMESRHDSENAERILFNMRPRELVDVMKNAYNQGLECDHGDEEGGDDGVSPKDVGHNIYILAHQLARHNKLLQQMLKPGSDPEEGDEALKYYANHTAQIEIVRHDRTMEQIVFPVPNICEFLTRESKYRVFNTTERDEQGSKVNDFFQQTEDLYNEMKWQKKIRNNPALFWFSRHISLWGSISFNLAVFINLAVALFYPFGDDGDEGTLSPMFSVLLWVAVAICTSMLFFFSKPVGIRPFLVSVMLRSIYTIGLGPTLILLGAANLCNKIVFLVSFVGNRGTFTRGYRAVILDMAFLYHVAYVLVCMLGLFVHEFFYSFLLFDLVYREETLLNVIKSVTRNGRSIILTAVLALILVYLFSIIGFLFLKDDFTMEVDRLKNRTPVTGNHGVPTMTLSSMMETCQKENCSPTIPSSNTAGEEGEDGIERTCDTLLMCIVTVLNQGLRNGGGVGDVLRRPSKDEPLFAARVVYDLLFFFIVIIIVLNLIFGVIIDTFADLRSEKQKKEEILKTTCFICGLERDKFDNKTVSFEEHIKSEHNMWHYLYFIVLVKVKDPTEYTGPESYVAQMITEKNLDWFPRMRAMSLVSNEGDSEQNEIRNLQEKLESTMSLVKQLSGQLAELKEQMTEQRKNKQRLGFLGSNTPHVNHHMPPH
In kind it is cell-based. The source says: Ca2+ release from ER of permeabilized DT40 cells, luminal Mag fluo-4 on IP3R2

Test [2] deals with T1, IP3R3. Type of test: biochemical.
Text: as §1

[3] abbreviates: 100 µM, 1.5 mM MgATP, free Ca2+ ~220 nM, pH 7, 20 °C, thapsigargin 1 µM, unreliable: paper suspects minor contamination by active IP3.

With `O=P(O)(O)O[C@@H]1[C@@H](O)[C@H](OP(=O)(O)O)C[C@H](O)[C@H]1OP(=O)(O)O` [2-deoxy(1,4,5)IP3], the EC50 – broadly, the concentration that produces a half-maximal response – is 0.324 µM at IP3R3 [1] and 0.115 µM on IP3R2.

For `O=P(O)(O)O[C@@H]1[C@@H](O)[C@H](OP(=O)(O)O)[C@H](O)C[C@H]1OP(=O)(O)O` [3-deoxy(1,4,5)IP3], the EC50 on IP3R3 [2] is 15.8 µM; on IP3R2, 5.89 µM.

For the compound `O=P(O)(O)O[C@H]1[C@H](O)[C@@H](O)[C@H](OP(=O)(O)O)[C@@H](OP(=O)(O)O)[C@H]1O` [(1,3,4)IP3], on IP3R3 [1] (setting [3]), the “IP3R3 / Ca^2+release (%)” value was 2±1%. Besides, on IP3R2 (setting [3]), the “IP3R2 / Ca^2+release (%)” value is listed as 18±6%.

With `O=P(O)(O)O[C@@H]1[C@H](O)[C@H](O)[C@@H](OP(=O)(O)O)[C@H](OP(=O)(O)O)[C@H]1O` [(1,4,5)IP3], the values for the EC50 at IP3R3 [1] and at IP3R2 were 0.417 µM and 0.145 µM, respectively.

Take `O=P(O)(O)O[C@@H]1[C@@H](O)[C@@H](O)[C@@H](OP(=O)(O)O)[C@H](OP(=O)(O)O)[C@H]1O` [(1,4,6)IP3]: the concentration giving a half-maximal response (EC50) on IP3R3 [1] amounted to 15.8 µM; at IP3R2 it was 12.6 µM.

`O=P(O)(O)O[C@@H]1[C@@H](O)[C@H](O)[C@H](O)[C@H](O)[C@H]1OP(=O)(O)O` [(4,5)IP2]: the values for the EC50 at IP3R3 [1] and at IP3R2 were 11.5 µM and 6.31 µM, respectively.

Take `CN(C)c1ccc(C(=C2C=CC(=[N+](C)C)C=C2)c2ccc(C(=O)NCCCOP(=O)(O)O[C@@H]3[C@H](O)[C@H](O)[C@@H](OP(=O)(O)O)[C@H](OP(=O)(O)O)[C@H]3O)cc2)cc1` [MG(1,4,5)IP3]: the EC50 on IP3R3 [2] was determined as 1.74 µM; at IP3R2, 0.708 µM.
